# Like-named read-outs stand apart in the source and are kept apart here.
# Experiments:
# [1] = Tissue distribution in rats after a single oral dose (Study 6510-109); type: in vivo, rat; conditions: for Kp: oral, 3 mg/kg, species not given
# Procedure: Distribution to the majority of tissues was higher than observed plasma levels.
# In rats and dogs, the Vdβ/F following oral administration was 40-80 L/kg. […] The highest mean Cmax observed was in the wall of the GI tract and occurred approximately 1 hour post-dose. […] A large tissue compartment of rifalazil is considered important for efficacy against Chlamydia given the intracellular nature of Chlamydia infection.
# [2] = test system: C. trachomatis; assay: Cell culture protection against re-infection with C. trachomatis; type: cell-based; conditions: single doses in cell culture
# [3] = human, in vivo
# [4] = physchem; type: physicochemical
# Procedure: Rifalazil is a highly lipophilic molecule having limited solubility in water at physiological pH (approximately 200 ng/mL). Evidence of the highly lipophilic behavior of the molecule is illustrated in the partition coefficient (n-octanol:water) of between 70, 569 and over 900,000 in different experiments (Log P range; 4.9-5.9).
# [5] = Single 25-mg dose under three food conditions in healthy male adults, adverse events; type: in vivo, human
# Procedure: In another study, a single 25-mg oral dose of rifalazil was administered to healthy male adults under one of three distinct food conditions: a high fat meal (60% fat), standard meal (30% fat), and under fasting conditions. No placebo-control was used in this study. Twelve subjects were enrolled, 10 of whom received all doses of rifalazil. Although high fat meal conditions result in higher plasma levels of rifalazil, the incidence of AEs was similar across all food conditions. A total of 83% of subjects (10/12) experienced treatment-emergent AEs, all of mild to moderate intensity. Fifty-eight percent were considered by the investigator to be drug-related. The most common reported drug-related AEs were back pain (25%) and headache (17%), and these were reported only in subjects under fed conditions. All other study medication-related AEs were reported by one subject (8%) only.
# [6] = Phase 1 single-dose study (2.5, 5, 12.5, 25 mg), adverse events; type: in vivo, human
# Procedure: Several Phase 1 studies of rifalazil administration have been carried out using 25 mg single doses. In one such study, sixteen patients received single doses of 25 mg. Overall, 75% of patients (12/16) reported treatment-emergent adverse events (AEs). […] However, for all dose groups, the incidence of AEs was higher for females than for males, and this difference was also observed in the placebo group. At 25 mg, […] of females (31/39) and 55% of males (16/29) reported treatment-emergent AEs. The AEs with an incidence greater than or equal to 10% were: […]
# [7] = Phase 1 Study ABI-1648-006, multiple oral dose pharmacokinetics; conditions: for Tmax / AUC / Cmax / half-life: human, plasma; for AUC0-Tau/Dose Mean / Cmax/Dose Mean: normalized to 1 mg/kg
# Procedure: Study ABI-1648-006 was conducted to evaluate the PK of single and multiple oral doses of 2.5, 5, 12.5, and 25 mg administered to healthy male and female volunteers.
# [8] = test system: C. pneumoniae; assay: Rabbit model of atherosclerosis accelerated by C. pneumoniae infection, cholesterol diet; conditions: C. pneumoniae-infected rabbits; rifalazil 5 mg/kg or azithromycin 30 mg/kg PO daily 1 week then twice weekly 6 weeks; 19 weeks after beginning treatment
# Procedure: Thirty received three separate C. pneumoniae inoculations performed at 3-week intervals. Similarly, 15 control rabbits were intranasally inoculated with 1 mL of normal saline under the same conditions.
# Nineteen weeks after beginning antibiotic treatment, the rabbits were euthanized. After euthanasia, hearts were examined histologically and by immunofluorescence. Animal serum samples were also examined for seropositivity to the infecting organism.
# [9] = Degradation to 25-desacetyl derivative under acidic and basic conditions; type: physicochemical
# Excerpt: Rifalazil degrades to a 25-desacetyl derivative under both acidic and basic conditions. Typical of ester hydrolysis, the degradation in highly alkaline solutions is rapid while at an acidic pH, e.g., pH 1, the degradation at room temperature is slower, approximately 6% in one hour.
smiles,measurement,setting,value
"CO[C@H]1/C=C/O[C@@]2(C)Oc3c(C)c(O)c4c(=O)c(c5oc6cc(N7CCN(CC(C)C)CC7)cc(O)c6nc-5c4c3C2=O)NC(=O)/C(C)=C\C=C\[C@H](C)[C@H](O)[C@@H](C)[C@@H](O)[C@@H](C)[C@H](OC(C)=O)[C@@H]1C [rifalazil, 3′-hydroxy-5′-(4-isobutyl-1-piperazinyl) benzoxazinorifamycin]",Kp,"[1]; rat, liver, read-out: tissue to plasma ratio (AUC), liver",33.7
same,Kp,"[1]; rat, testes, read-out: tissue to plasma ratio (AUC), testes",4.9
same,concentration at 1 h,"[1]; rat, wall of the GI tract, rats, single oral 3 mg/kg, at 1 hour",5400 ng/g
same,"tissue concentration, spleen","[1]; rats, single oral 3 mg/kg, at 8-12 hours post dose",5.1-9.3 μg/gm
same,duration of protective effect against re-infection with C. trachomatis,[2],up to 12 days
same,overall extent of metabolism,[3],less than 3 % of the administered dose
same,partition coefficient (n-octanol:water),[4],"70, 569-900,000"
same,logP,"[4]; n-octanol:water, different experiments, read-out: Log P range",4.9 to 5.9
same,solubility,"[4]; pH 7.4, aqueous buffer, physiological pH, read-out: solubility in water",~0.2 µg/mL
same,AEs considered by the investigator to be drug-related,[5],Fifty-eight
same,"all other study medication-related AEs (each, one subject)",[5],8%
same,subjects experiencing treatment-emergent AEs,[5]; all food conditions (10/12),83%
same,drug-related back pain,[5]; only under fed conditions,25%
same,drug-related headache,[5]; only under fed conditions,17%
same,males reporting treatment-emergent AEs,[6]; at 25 mg (16/29),55%
same,females reporting treatment-emergent AEs,[6]; at 25 mg (31/39),88%
same,incidence of Bacteria in urine,[6]; single dose 25 mg,19%
same,incidence of Blood present in urine,[6]; single dose 25 mg,13%
same,incidence of Body temperature increased,[6]; single dose 25 mg,25%
same,incidence of Headache,[6]; single dose 25 mg,38%
same,incidence of Lymphocyte count decreased,[6]; single dose 25 mg,31%
same,incidence of Monocyte count increased,[6]; single dose 25 mg,13%
same,incidence of Nausea,[6]; single dose 25 mg,13%
same,incidence of Neutrophil count increased,[6]; single dose 25 mg,13%
same,incidence of Pharyngitis,[6]; single dose 25 mg,13%
same,incidence of White blood cells (WBCs) in urine,[6]; single dose 25 mg,19%
same,patients reporting treatment-emergent adverse events,"[6]; single dose 25 mg, 16 patients",75%
same,Tmax,"[7]; both, po",4 to 6.3 h
same,AUC,"[7]; female, oral, 2.5 mg",0.0982 µg·h/mL
same,Cmax,"[7]; female, oral, 2.5 mg",0.007 µg/mL
same,Tmax,"[7]; female, oral, 2.5 mg",4.3 h
same,half-life,"[7]; female, oral, 2.5 mg",140 h
same,AUC,"[7]; female, oral, 5 mg",0.197 µg·h/mL
same,Cmax,"[7]; female, oral, 5 mg",0.0143 µg/mL
same,Tmax,"[7]; female, oral, 5 mg",5.3 h
same,half-life,"[7]; female, oral, 5 mg",174 h
same,AUC,"[7]; female, oral, 12.5 mg",0.339 µg·h/mL
same,Cmax,"[7]; female, oral, 12.5 mg",0.0191 µg/mL
same,Tmax,"[7]; female, oral, 12.5 mg",6.3 h
same,half-life,"[7]; female, oral, 12.5 mg",86.5 h
same,half-life,"[7]; female, po",86 to 140 h
same,AUC0-Tau/Dose Mean,"[7]; females, 2.5 mg QD × 5 days",2540.1
same,Cmax/Dose Mean,"[7]; females, 2.5 mg QD × 5 days",184.1
same,AUC0-Tau/Dose Mean,"[7]; females, 5 mg QD × 5 days",2539.0
same,Cmax/Dose Mean,"[7]; females, 5 mg QD × 5 days",183.6
same,AUC0-Tau/Dose Mean,"[7]; females, 12.5 mg × 2 doses",1614.0
same,Cmax/Dose Mean,"[7]; females, 12.5 mg × 2 doses",90.6
same,AUC,"[7]; male, oral, 2.5 mg",0.178 µg·h/mL
same,Cmax,"[7]; male, oral, 2.5 mg",0.0085 µg/mL
same,Tmax,"[7]; male, oral, 2.5 mg",4.3 h
same,half-life,"[7]; male, oral, 2.5 mg",134 h
same,AUC,"[7]; male, oral, 5 mg",0.261 µg·h/mL
same,Cmax,"[7]; male, oral, 5 mg",0.0173 µg/mL
same,Tmax,"[7]; male, oral, 5 mg",4 h
same,half-life,"[7]; male, oral, 5 mg",119 h
same,AUC,"[7]; male, oral, 12.5 mg",0.398 µg·h/mL
same,Cmax,"[7]; male, oral, 12.5 mg",0.0209 µg/mL
same,Tmax,"[7]; male, oral, 12.5 mg",6.2 h
same,half-life,"[7]; male, oral, 12.5 mg",120 h
same,half-life,"[7]; male, po",118 to 134 h
same,AUC0-Tau/Dose Mean,"[7]; males, 2.5 mg QD × 5 days",5788.5
same,Cmax/Dose Mean,"[7]; males, 2.5 mg QD × 5 days",279.2
same,AUC0-Tau/Dose Mean,"[7]; males, 5 mg QD × 5 days",4152.6
same,Cmax/Dose Mean,"[7]; males, 5 mg QD × 5 days",273.7
same,AUC0-Tau/Dose Mean,"[7]; males, 12.5 mg × 2 doses",2357.9
same,Cmax/Dose Mean,"[7]; males, 12.5 mg × 2 doses",124.2
same,Plaque Area Stenosis (%),[8],24.2%
same,degradation in highly alkaline solutions,[9]; highly alkaline solutions,rapid
same,degradation to 25-desacetyl derivative,"[9]; pH 1, room temperature, in one hour",approximately 6%

# Source: US20070112018A1, “Treatment of peripheral arterial occlusive disease” (priority 2005, published 2007)
